This is an account of results in ChEMBL document CHEMBL3244223, “Drug-induced modifications of the immune response. 1. Substituted 1-phenylisoquinolines” (1979).

Structures are written as SMILES. “And” between values parts separate entries of the source, which are not always exact repeats. Identical values can stand only once. The source made the active and inactive calls. The calls are words filed in the database; no cut-off is given here.

Assay [1] concerns Rattus norvegicus. As to the kind of experiment: Antiallergic activity in Sprague-Dawley rat assessed as inhibition of ovalbumin-induced wheal formation at 25 mg/kg, ip administered 5 mins prior to ovalbumin challenge measured after 30 mins by passive cutaneous anaphylaxis assay relative to control. Type of assay: functional. The settings on record: route intraperitoneal; for inhibition in vivo at 25 mg/kg: Rattus norvegicus, Sprague-Dawley, ip.

For the next assay, the species on record is Canis lupus familiaris. The experiment in a line: Inhibition of Mongrel dog ventricular muscle cAMP phosphodiesterase using adenosine 3',5' monophosphate as substrate at 100 uM by scintillation counting analysis in presence of [8-14C]adenosine relative to control.
Assay [2] in a line: Antiallergic activity in antiovalbumin serum sensitized guinea pig lung slices assessed as inhibition of ovalbumin-induced histamine release at 100 uM preincubated for 5 mins followed by ovalbumin challenge measured after 15 mins by fluorometric analysis relative to control. Type of assay: functional, Cavia porcellus. The settings on record: for inhibition at 100 µM: Cavia porcellus, Lung.

Assay [3] relates to Rattus norvegicus. The experiment in a line: Antiallergic activity in Sprague-Dawley rat assessed as inhibition of ovalbumin-induced wheal formation at 25 mg/kg, po administered 10 mins prior to ovalbumin challenge measured after 30 mins by passive cutaneous anaphylaxis assay relative to control. Type of assay: functional.
For assay [4], the system named is Rattus norvegicus. As to the kind of experiment: Antiallergic activity in ip dosed Sprague-Dawley rat assessed as inhibition of ovalbumin-induced wheal formation administered 5 mins prior to ovalbumin challenge measured after 30 mins by passive cutaneous anaphylaxis assay. Type of assay: functional.
For assay [5], the system named is Rattus norvegicus. As to the kind of experiment: Antiallergic activity in Sprague-Dawley rat assessed as inhibition of serotonin-induced wheal formation at 25 mg/kg, ip administered 5 mins prior to serotonin challenge measured 5 mins post serotonin challenge relative to control. Type of assay: functional.
Assay [6] deals with Rattus norvegicus. The experiment in a line: Antiallergic activity in Sprague-Dawley rat assessed as inhibition of ovalbumin-induced wheal formation at 6 mg/kg, ip administered 5 mins prior to ovalbumin challenge measured after 30 mins by passive cutaneous anaphylaxis assay relative to control. It is filed as functional. The conditions noted are these: route intraperitoneal.

Assay [7] in a line: Antiallergic activity in antiovalbumin serum sensitized guinea pig lung slices assessed as inhibition of ovalbumin-induced histamine release at 1.5 mM preincubated for 5 mins followed by ovalbumin challenge measured after 15 mins by fluorometric analysis relative to control. Type of assay: functional. The settings on record: Cavia porcellus.
Assay [8] is described as follows: Antiallergic activity in antiovalbumin serum sensitized guinea pig lung slices assessed as inhibition of ovalbumin-induced histamine release at 0.3 uM preincubated for 5 mins followed by ovalbumin challenge measured after 15 mins by fluorometric analysis relative to control. Type of assay: functional. The settings on record: Cavia porcellus.

The inhibition in vivo is the percentage by which the read-out fell short of the control. For orientation: inhibition means the drop in the measured response relative to a control, in per cent. In the case of `COc1cc2c(cc1OC)C(C1CCCCC1)=NCC2`, the inhibition in vivo at 25 mg/kg in the assay with Rattus norvegicus [1] worked out at 18%. In the assay listed under Canis lupus familiaris, the inhibition amounted to 70%.

`COc1cc2c(cc1OC)C(C1CCCCC1)NCC2` (stereo unspecified): the inhibition in vivo at 25 mg/kg turned out to be 49% in the assay on Rattus norvegicus [1] and 8% in the assay on Rattus norvegicus [3]. The inhibition in the assay listed under Canis lupus familiaris came to 19%. The inhibition at 100 µM in assay [2] is 66%.

In general, ED50 refers to the midpoint of the dose-response relation. As to `COc1cc2c(cc1OC)C(c1ccc(C(C)(C)C)cc1)NCC2.Cl` (stereo unspecified), the inhibition in vivo at 25 mg/kg in the assay on Rattus norvegicus [1] worked out at 37%; with Rattus norvegicus [3], 9%. For the same compound, the inhibition in the assay filed under Canis lupus familiaris was found to be 71%. The inhibition at 100 µM in [2] amounted to 13%. Moreover, the 50% effective dose (ED50) with Rattus norvegicus [4] was 24 mg/kg. Moreover, the inhibition entry in the assay on Rattus norvegicus [5] is “inactive”.

For the compound `COc1cc2c(cc1OC)C(c1ccccc1)=NCC2` [listing 1 of 2 here], in the assay listed under Canis lupus familiaris, the inhibition was 97% and 91%.

Consider `O=C(O)c1cc(=O)c2c(OCC(O)COc3cccc4oc(C(=O)O)cc(=O)c34)cccc2o1` [CROMOLYN SODIUM], for which the inhibition in vivo at 6 mg/kg with Rattus norvegicus [6] is 52%.

In the case of `COc1cc2c(cc1OC)C(c1ccccc1OC)NCC2` (stereo unspecified), the inhibition in vivo at 25 mg/kg with Rattus norvegicus [1] was found to be 24%. The inhibition in the assay filed under Canis lupus familiaris was determined as 34%. Also, the inhibition at 100 µM in assay [2] came out at 46%.

On to `c1ccc(C2=NCCc3ccccc32)cc1`, for which the inhibition in vivo at 25 mg/kg in the assay with Rattus norvegicus [1] is 0%. Further, the inhibition in the assay listed under Canis lupus familiaris turned out to be 42%. Besides, the inhibition at 100 µM in [2] was 17%.

Regarding `Cn1c(=O)c2nc[nH]c2n(C)c1=O` [THEOPHYLLINE], in assay [7], the inhibition at 1500 µM came to 50%.

On to `COc1cc2c(cc1OCc1ccccc1)C(c1ccccc1)=NCC2`, for which the inhibition in vivo at 25 mg/kg in the assay with Rattus norvegicus [1] came out at 36%. For the same compound, the inhibition in the assay listed under Canis lupus familiaris came to 95%. In addition, the inhibition at 100 µM in [2] came to 18%.

Take `COc1cc2c(cc1OC)C(c1cccc(C(F)(F)F)c1)=NCC2`: in the assay with Rattus norvegicus [1], the inhibition in vivo at 25 mg/kg was 35%. In addition, the inhibition in the assay listed under Canis lupus familiaris came to 95%. Besides, the inhibition at 100 µM in assay [2] was determined as 16%.

In the case of `Cc1ccc2c(c1)C(c1ccccc1)NCC2` (stereo unspecified), the inhibition in vivo at 25 mg/kg in the assay with Rattus norvegicus [1] was found to be 51%; in the assay with Rattus norvegicus [3], 17%. Besides, in the assay filed under Canis lupus familiaris, the inhibition amounted to 4%. The inhibition at 100 µM in assay [2] worked out at 0%.

Consider `COc1cc2c(cc1O)C(c1ccccc1)=NCC2`, for which, in the assay on Rattus norvegicus [1], the inhibition in vivo at 25 mg/kg was determined as 46%. For the same compound, the inhibition in the assay filed under Canis lupus familiaris was 83%. Moreover, the inhibition at 100 µM in assay [2] came to 36%.

In the case of `COc1cc2c(cc1OC)C(c1nccc3cc(OC)c(OC)cc13)OC2=O` (stereo unspecified), the inhibition in vivo at 25 mg/kg in the assay with Rattus norvegicus [1] is 16%. The inhibition in the assay filed under Canis lupus familiaris came to 33%.

For the compound `COc1cc2c(cc1OC)C(c1ccccc1)NCC2.Cl` (stereo unspecified), the figures for the inhibition in vivo at 25 mg/kg in the assay on Rattus norvegicus [1] and in the assay on Rattus norvegicus [3] were 52% and 7%, respectively. Further, in the assay filed under Canis lupus familiaris, the inhibition stood at 46%. Besides, the inhibition at 100 µM in [2] is 49%. Besides, in the assay on Rattus norvegicus [4], the ED50 worked out at 34 mg/kg. Further, the inhibition entry in the assay on Rattus norvegicus [5] is “inactive”.

For the compound `COc1cc2c(cc1OC)C(Cc1cc(OC)c(OCc3ccccc3)cc1Br)NCC2` (racemic), in the assay with Rattus norvegicus [1], the inhibition in vivo at 25 mg/kg was found to be 0%. Further, the inhibition in the assay filed under Canis lupus familiaris worked out at 45%. Besides, the inhibition at 100 µM in assay [2] turned out to be 27%.

For the compound `Cn1c(=O)c2[nH]cnc2n(C)c1=O`, in the assay listed under Canis lupus familiaris, the inhibition came to 51%.

Regarding `c1ccc2c(c1)CCNC2`, the inhibition in vivo at 25 mg/kg with Rattus norvegicus [1] was 18%. In addition, the inhibition in the assay listed under Canis lupus familiaris stood at 0%. For the same compound, the inhibition at 100 µM in [2] came out at 31%.

In the case of `CI.COc1cc2c(cc1OC)C(c1ccccc1)=NCC2`, the inhibition in vivo at 25 mg/kg in the assay with Rattus norvegicus [1] stood at 22%. Also, the “inhibition (INH)” value in assay [2] worked out at 63%.

As to `COc1cc2c(cc1OCc1ccccc1)C(c1ccccc1)NCC2` (racemic), the inhibition in vivo at 25 mg/kg in the assay with Rattus norvegicus [1] and with Rattus norvegicus [5] (route intraperitoneal) was 29% throughout. In addition, in the assay listed under Canis lupus familiaris, the inhibition is 34%. Besides, the inhibition at 100 µM in assay [2] was determined as 56%.

For the compound `COc1cc2c(cc1OC)C(c1ccccc1OC)=NCC2`, the inhibition in vivo at 25 mg/kg in the assay on Rattus norvegicus [1] was 36%. The inhibition in the assay listed under Canis lupus familiaris turned out to be 56%.

For `CC(C)NCC(O)c1ccc(O)c(O)c1` (stereo unspecified) [ISOPROTERENOL], the inhibition at 0.3 µM in assay [8] was found to be 49%.

As to `COc1cc2c(cc1O)C(c1ccccc1)NCC2` (stereo unspecified), the inhibition in vivo at 25 mg/kg stood at 43% in the assay with Rattus norvegicus [1] and 6% in the assay on Rattus norvegicus [3]. Further, the inhibition in the assay filed under Canis lupus familiaris was 19%. In assay [2], the inhibition at 100 µM turned out to be 25%.

In the case of `Cc1ccc2c(c1)C(c1ccccc1)=NCC2`, the inhibition in vivo at 25 mg/kg in the assay with Rattus norvegicus [1] was found to be 23%. Also, in the assay filed under Canis lupus familiaris, the inhibition is 53%. Besides, the inhibition at 100 µM in assay [2] is 6%.

As for `COc1ccc2c(c1)C(c1ccccc1)NCC2.Cl` (stereo unspecified), the results for the inhibition in vivo at 25 mg/kg in the assay with Rattus norvegicus [1] and with Rattus norvegicus [3] were 41% and 40%, respectively. In addition, in the assay filed under Canis lupus familiaris, the inhibition was 12%. For the same compound, the inhibition at 100 µM in assay [2] came out at 60%. In addition, the ED50 in the assay on Rattus norvegicus [4] is 24 mg/kg. Moreover, the inhibition result in the assay with Rattus norvegicus [5] was “inactive”.

For `Clc1ccc2c(c1)C(c1ccccc1)=NCC2`, the inhibition in vivo at 25 mg/kg in the assay on Rattus norvegicus [1] turned out to be 34%. Also, the inhibition in the assay filed under Canis lupus familiaris came out at 44%. For the same compound, the inhibition at 100 µM in [2] was determined as 0%.

Regarding `COc1cc2c(cc1OC)C(Cc1cc(OCc3ccccc3)c(OC)cc1Br)NCC2` (racemic), the inhibition in vivo at 25 mg/kg in the assay with Rattus norvegicus [1] turned out to be 0%. In addition, in the assay listed under Canis lupus familiaris, the inhibition was found to be 55%. Besides, the inhibition at 100 µM in assay [2] came out at 33%.

In the case of `COc1cc2c(cc1OC)C(c1ccccc1)=NCC2` [listing 2 of 2 here], the “inhibition (INH)” value in the assay on Rattus norvegicus [1] was 31%; in assay [2], 91%.

As to `COc1cc2c(cc1OC)C(c1cccc(C(F)(F)F)c1)NCC2` (stereo unspecified), the inhibition in vivo at 25 mg/kg in the assay with Rattus norvegicus [1] stood at 29%. In addition, in the assay filed under Canis lupus familiaris, the inhibition was found to be 84%. The inhibition at 100 µM in assay [2] stood at 55%.

Consider `COc1cc2c(cc1OC)C1C(=O)Cc3ccccc3CN1CC2` (stereo unspecified), for which the inhibition in vivo at 25 mg/kg in the assay with Rattus norvegicus [1] came out at 18%. For the same compound, in the assay filed under Canis lupus familiaris, the inhibition was found to be 64%. Also, the inhibition at 100 µM in assay [2] was 43%.

For the compound `c1ccc(C2NCCc3ccccc32)cc1` (stereo unspecified), in the assay with Rattus norvegicus [1], the inhibition in vivo at 25 mg/kg turned out to be 17%. The inhibition in the assay listed under Canis lupus familiaris came to 7%. Also, the inhibition at 100 µM in assay [2] is 46%.

`CCOC(=O)C(=O)N1CCc2cc(OC)c(OCc3ccccc3)cc2C1c1ccccc1` (stereo unspecified): the inhibition in vivo at 25 mg/kg in the assay with Rattus norvegicus [1] is 18%. In the assay listed under Canis lupus familiaris, the inhibition was determined as 0%. The inhibition at 100 µM in assay [2] was found to be 0%.
